Test results from ChEMBL document CHEMBL3885881, “DrugMatrix”.

Organism: Rattus norvegicus
Assay: DrugMatrix - Regimen: Daily Repeat
Format: toxicity, organism-based, Sprague-Dawley
Set-up: regimen Daily Repeat, gender Male, age 6-8 weeks
Details: in vivo, po, 0 mg/kg, route oral GAVAGE, dose level Control, vehicle .5 % CMC; for BASOPHIL / EOSINOPHIL / ERYTHROCYTE COUNT / HEMATOCRIT / HEMOGLOBIN / LEUKOCYTE COUNT / LYMPHOCYTE / MEAN CORPUSCULAR HEMOGLOBIN / MEAN CORPUSCULAR HEMOGLOBIN CONCENTRATION / MEAN CORPUSCULAR VOLUME / MONOCYTE / NEUTROPHIL / PLATELET COUNT / ABSOLUTE BASOPHIL / ABSOLUTE EOSINOPHIL / ABSOLUTE LYMPHOCYTE / ABSOLUTE MONOCYTE / ABSOLUTE SEGMENTED NEUTROPHIL / NUCLEATED RED BLOOD CELLS: tissue Blood; for ALANINE AMINOTRANSFERASE / ALBUMIN / ALKALINE PHOSPHATASE / ASPARTATE AMINOTRANSFERASE / BLOOD UREA NITROGEN / CHLORIDE / CHOLESTEROL / CREATINE PHOSPHOKINASE / CREATININE / GLUCOSE / PHOSPHORUS / POTASSIUM / SODIUM / TOTAL BILIRUBIN / TOTAL PROTEIN / CARBON DIOXIDE / LACTATE DEHYDROGENASE / LIPASE / URIC ACID: tissue Plasma

C[C@]12C/C(=C/O)C(=O)C[C@@H]1CC[C@@H]1[C@@H]2CC[C@@]2(C)[C@H]1CC[C@]2(C)O [OXYMETHOLONE]
BASOPHIL (72 h, time 3 day): 0.68% | EOSINOPHIL (72 h, time 3 day): 0.46% | ERYTHROCYTE COUNT (72 h, time 3 day): 7.15 x10E6/uL | HEMATOCRIT (72 h, time 3 day): 45.44% | HEMOGLOBIN (72 h, time 3 day): 14.1 G/DL | LEUKOCYTE COUNT (72 h, time 3 day): 9.78 x10E3/uL | LYMPHOCYTE (72 h, time 3 day): 84.44% | MEAN CORPUSCULAR HEMOGLOBIN (72 h, time 3 day): 19.72 pg | MEAN CORPUSCULAR HEMOGLOBIN CONCENTRATION (72 h, time 3 day): 31 G/DL | MEAN CORPUSCULAR VOLUME (72 h, time 3 day): 63.66 fL | MONOCYTE (72 h, time 3 day): 2.14% | NEUTROPHIL (72 h, time 3 day): 11.16% | PLATELET COUNT (72 h, time 3 day): 1378.2 x10E3/uL | ALANINE AMINOTRANSFERASE (72 h, time 3 day): 42.33 u/L | ALBUMIN (72 h, time 3 day): 3.8 G/DL | ALKALINE PHOSPHATASE (72 h, time 3 day): 388.17 u/L | ASPARTATE AMINOTRANSFERASE (72 h, time 3 day): 68 u/L | BLOOD UREA NITROGEN (72 h, time 3 day): 16.17 mg/dL | CHLORIDE (72 h, time 3 day): 96.67 MEQ/L | CHOLESTEROL (72 h, time 3 day): 71 mg/dL | CREATINE PHOSPHOKINASE (72 h, time 3 day): 156.17 u/L | CREATININE (72 h, time 3 day): 0.57 mg/dL | GLUCOSE (72 h, time 3 day): 193.67 mg/dL | PHOSPHORUS (72 h, time 3 day): 11.43 mg/dL | POTASSIUM (72 h, time 3 day): 7 MEQ/L | SODIUM (72 h, time 3 day): 140.33 MEQ/L | TOTAL BILIRUBIN (72 h, time 3 day): 0.48 mg/dL | TOTAL PROTEIN (72 h, time 3 day): 6.8 G/DL | BASOPHIL (120 h, time 5 day): 1.47% | EOSINOPHIL (120 h, time 5 day): 1% | ERYTHROCYTE COUNT (120 h, time 5 day): 7.12 x10E6/uL | HEMATOCRIT (120 h, time 5 day): 45.47% | HEMOGLOBIN (120 h, time 5 day): 14.1 G/DL | LEUKOCYTE COUNT (120 h, time 5 day): 11.38 x10E3/uL | LYMPHOCYTE (120 h, time 5 day): 82.57% | MEAN CORPUSCULAR HEMOGLOBIN (120 h, time 5 day): 19.82 pg | MEAN CORPUSCULAR HEMOGLOBIN CONCENTRATION (120 h, time 5 day): 31.02 G/DL | MEAN CORPUSCULAR VOLUME (120 h, time 5 day): 63.88 fL | MONOCYTE (120 h, time 5 day): 2.2% | NEUTROPHIL (120 h, time 5 day): 11.97% | PLATELET COUNT (120 h, time 5 day): 1267 x10E3/uL | ALANINE AMINOTRANSFERASE (120 h, time 5 day): 38 u/L | ALBUMIN (120 h, time 5 day): 3.72 G/DL | ALKALINE PHOSPHATASE (120 h, time 5 day): 391 u/L | ASPARTATE AMINOTRANSFERASE (120 h, time 5 day): 65.83 u/L | BLOOD UREA NITROGEN (120 h, time 5 day): 14.17 mg/dL | CHLORIDE (120 h, time 5 day): 107.67 MEQ/L | CHOLESTEROL (120 h, time 5 day): 61 mg/dL | CREATINE PHOSPHOKINASE (120 h, time 5 day): 148.33 u/L | CREATININE (120 h, time 5 day): 0.57 mg/dL | GLUCOSE (120 h, time 5 day): 177.17 mg/dL | PHOSPHORUS (120 h, time 5 day): 12.07 mg/dL | POTASSIUM (120 h, time 5 day): 7.2 MEQ/L | SODIUM (120 h, time 5 day): 151.5 MEQ/L | TOTAL BILIRUBIN (120 h, time 5 day): 0.58 mg/dL | TOTAL PROTEIN (120 h, time 5 day): 6.72 G/DL

COc1ccccc1OCC(O)COC(N)=O (configuration not stated) [METHOCARBAMOL]
ABSOLUTE BASOPHIL (72 h, time 3 day): 0 CELLS/uL | ABSOLUTE EOSINOPHIL (72 h, time 3 day): 171.33 CELLS/uL | ABSOLUTE LYMPHOCYTE (72 h, time 3 day): 13776.5 CELLS/uL | ABSOLUTE MONOCYTE (72 h, time 3 day): 180.83 CELLS/uL | ABSOLUTE SEGMENTED NEUTROPHIL (72 h, time 3 day): 1121.33 CELLS/uL | BASOPHIL (72 h, time 3 day): 0% | EOSINOPHIL (72 h, time 3 day): 1% | ERYTHROCYTE COUNT (72 h, time 3 day): 5.56 x10E6/uL | HEMATOCRIT (72 h, time 3 day): 34.75% | HEMOGLOBIN (72 h, time 3 day): 13.68 G/DL | LEUKOCYTE COUNT (72 h, time 3 day): 15.25 x10E3/uL | LYMPHOCYTE (72 h, time 3 day): 90.17% | MEAN CORPUSCULAR HEMOGLOBIN (72 h, time 3 day): 24.6 pg | MEAN CORPUSCULAR HEMOGLOBIN CONCENTRATION (72 h, time 3 day): 39.4 G/DL | MEAN CORPUSCULAR VOLUME (72 h, time 3 day): 62.48 fL | MONOCYTE (72 h, time 3 day): 1.17% | NEUTROPHIL (72 h, time 3 day): 7.67% | NUCLEATED RED BLOOD CELLS (72 h, time 3 day): 0 /100WBC | PLATELET COUNT (72 h, time 3 day): 1342 x10E3/uL | ALANINE AMINOTRANSFERASE (72 h, time 3 day): 49.67 u/L | ALBUMIN (72 h, time 3 day): 4.15 G/DL | ALKALINE PHOSPHATASE (72 h, time 3 day): 346.83 u/L | ASPARTATE AMINOTRANSFERASE (72 h, time 3 day): 108.17 u/L | BLOOD UREA NITROGEN (72 h, time 3 day): 17.33 mg/dL | CARBON DIOXIDE (72 h, time 3 day): 25 mmol/L | CHLORIDE (72 h, time 3 day): 100.83 MEQ/L | CHOLESTEROL (72 h, time 3 day): 66.83 mg/dL | CREATINE PHOSPHOKINASE (72 h, time 3 day): 788 u/L | CREATININE (72 h, time 3 day): 0.18 mg/dL | GLUCOSE (72 h, time 3 day): 151.67 mg/dL | LACTATE DEHYDROGENASE (72 h, time 3 day): 982.5 u/L | LIPASE (72 h, time 3 day): 10.33 u/L | PHOSPHORUS (72 h, time 3 day): 11.23 mg/dL | POTASSIUM (72 h, time 3 day): 6.37 MEQ/L | SODIUM (72 h, time 3 day): 141.02 MEQ/L | TOTAL BILIRUBIN (72 h, time 3 day): 0.18 mg/dL | TOTAL PROTEIN (72 h, time 3 day): 5.9 G/DL | URIC ACID (72 h, time 3 day): 1.8 mg/dL | ABSOLUTE BASOPHIL (120 h, time 5 day): 0 CELLS/uL | ABSOLUTE EOSINOPHIL (120 h, time 5 day): 69 CELLS/uL | ABSOLUTE LYMPHOCYTE (120 h, time 5 day): 13632.83 CELLS/uL | ABSOLUTE MONOCYTE (120 h, time 5 day): 139.83 CELLS/uL | ABSOLUTE SEGMENTED NEUTROPHIL (120 h, time 5 day): 1225 CELLS/uL | BASOPHIL (120 h, time 5 day): 0% | EOSINOPHIL (120 h, time 5 day): 0.33% | ERYTHROCYTE COUNT (120 h, time 5 day): 5.52 x10E6/uL | HEMATOCRIT (120 h, time 5 day): 33.98% | HEMOGLOBIN (120 h, time 5 day): 13.22 G/DL | LEUKOCYTE COUNT (120 h, time 5 day): 15.07 x10E3/uL | LYMPHOCYTE (120 h, time 5 day): 90.83% | MEAN CORPUSCULAR HEMOGLOBIN (120 h, time 5 day): 23.95 pg | MEAN CORPUSCULAR HEMOGLOBIN CONCENTRATION (120 h, time 5 day): 38.9 G/DL | MEAN CORPUSCULAR VOLUME (120 h, time 5 day): 61.53 fL | MONOCYTE (120 h, time 5 day): 0.83% | NEUTROPHIL (120 h, time 5 day): 8% | NUCLEATED RED BLOOD CELLS (120 h, time 5 day): 0 /100WBC | PLATELET COUNT (120 h, time 5 day): 1196 x10E3/uL | ALANINE AMINOTRANSFERASE (120 h, time 5 day): 49.17 u/L | ALBUMIN (120 h, time 5 day): 4.2 G/DL | ALKALINE PHOSPHATASE (120 h, time 5 day): 352.33 u/L | ASPARTATE AMINOTRANSFERASE (120 h, time 5 day): 89.67 u/L | BLOOD UREA NITROGEN (120 h, time 5 day): 18 mg/dL | CARBON DIOXIDE (120 h, time 5 day): 27.67 mmol/L | CHLORIDE (120 h, time 5 day): 101 MEQ/L | CHOLESTEROL (120 h, time 5 day): 72.83 mg/dL | CREATINE PHOSPHOKINASE (120 h, time 5 day): 417.5 u/L | CREATININE (120 h, time 5 day): 0.18 mg/dL | GLUCOSE (120 h, time 5 day): 150.5 mg/dL | LACTATE DEHYDROGENASE (120 h, time 5 day): 517.33 u/L | LIPASE (120 h, time 5 day): 9 u/L | PHOSPHORUS (120 h, time 5 day): 11.87 mg/dL | POTASSIUM (120 h, time 5 day): 6.57 MEQ/L | SODIUM (120 h, time 5 day): 143.62 MEQ/L | TOTAL BILIRUBIN (120 h, time 5 day): 0.2 mg/dL | TOTAL PROTEIN (120 h, time 5 day): 6.08 G/DL | URIC ACID (120 h, time 5 day): 1.45 mg/dL
